Source: DBAASP
≈ marks a conversion by molar mass, not a printed value. Each block holds one compound with its values, some of them ahead of it.

What was measured:
Experiment in all cases: ≥ marks a high value that may be exact or a test limit, other limits are often not marked, values filed in µg/mL are converted to µM
[1] = system: Staphylococcus aureus IFO 12732
[2] = system: Bacillus subtilis IFO 3513
[3] = system: Escherichia coli IFO 12734
[4] = system: Bacillus subtilis
[5] = system: Escherichia coli
[6] = system: Salmonella enterica subsp. enterica serovar Typhi
[7] = system: Candida albicans ATCC 90028
[8] = system: Pseudomonas aeruginosa
[9] = system: Staphylococcus aureus
[10] = system: Escherichia coli ATCC 25922
[11] = system: Enterobacter cloacae
[12] = system: Pseudomonas aeruginosa ATCC 27853
[13] = system: Staphylococcus aureus ATCC 25923
[14] = system: Escherichia coli ML-35
[15] = system: Escherichia coli BW25113
[16] = system: Serratia marcescens ATCC 8100
[17] = system: Escherichia coli HB101
[18] = system: Escherichia coli BW25113 ΔsbmA
[19] = system: Salmonella enterica subsp. enterica serovar Typhimurium ATCC 14028
[20] = system: Escherichia coli TOP 10
[21] = system: Staphylococcus sp. BCRC 10451
[22] = system: Staphylococcus aureus RN4220
[23] = system: Escherichia coli ML-35p
[24] = system: Malassezia sympodialis ATCC 42132
[25] = system: Bacillus subtilis ATCC 6633
[26] = system: Candida albicans ATCC 20032
[27] = system: Trichosporon beigelii KCTC 7707
[28] = system: Pseudomonas aeruginosa KCTC 1637
[29] = system: Salmonella typhimurium KCTC 1926
[30] = system: Staphylococcus epidermidis KCTC 3096
[31] = system: Bacillus subtilis KCTC 1918
[32] = system: Candida albicans TIMM 1768

- MIC [4]: ≥ 34.8 µM
- MIC [5]: 17.4 µM (≈ 32 µg/mL)
- MIC [6]: 17.4 µM (≈ 32 µg/mL)
- MIC [7]: ≥ 69.6 µM
- MIC [8]: 17.4 µM (≈ 32 µg/mL)
- MIC [9]: 69.6 µM (≈ 128 µg/mL)
- MIC [10]: 69.6 µM (≈ 128 µg/mL)
- MIC [11]: ≥ 139 µM
- MIC [12]: 69.6 µM (≈ 128 µg/mL)
- MIC [13]: 2.17 µM (≈ 4 µg/mL)
Compound: CC(C)C[C@H](NC(=O)[C@H](CCCCN)NC(=O)[C@H](CCCN=C(N)N)NC(=O)[C@H](Cc1ccccc1)NC(=O)[C@H](Cc1ccccc1)NC(=O)[C@H](CCCCN)NC(=O)[C@H](CCCCN)NC(=O)[C@H](Cc1ccccc1)NC(=O)[C@H](CCCN=C(N)N)NC(=O)[C@H](CCCCN)NC(=O)[C@@H](N)C(C)C)C(=O)N[C@@H](CCCCN)C(=O)N[C@@H](CCCCN)C(=O)N[C@@H](CO)C(N)=O [VKRFKKFFRKLKKS]

- MIC [14]: 1 µM (≈ 2.88 µg/mL)
- MIC [15]: 7.4 µM (≈ 21.3 µg/mL)
- MIC [16]: 4 µM (≈ 11.5 µg/mL)
- MIC [17]: 0.5 µM (≈ 1.44 µg/mL)
- MIC [18]: ≥ 52.1 µM
- MIC [19]: 2 µM (≈ 5.76 µg/mL)
- MIC [20]: 4.6 µM (≈ 13.3 µg/mL)
- MIC [13]: > 128 µM
Compound: CC[C@H](C)[C@H](NC(=O)[C@H](CCCN=C(N)N)NC(=O)[C@@H](N)CCCN=C(N)N)C(=O)N[C@@H](CCCN=C(N)N)C(=O)N1CCC[C@H]1C(=O)N[C@@H](CCCN=C(N)N)C(=O)N1CCC[C@H]1C(=O)N1CCC[C@H]1C(=O)N[C@@H](CCCN=C(N)N)C(=O)N[C@@H](CC(C)C)C(=O)N1CCC[C@H]1C(=O)N[C@@H](CCCN=C(N)N)C(=O)N1CCC[C@H]1C(=O)N[C@@H](CCCN=C(N)N)C(=O)N1CCC[C@H]1C(=O)N[C@@H](CCCN=C(N)N)C(=O)N1CCC[C@H]1C(=O)N[C@@H](CC(C)C)C(=O)N1CCC[C@H]1C(=O)N[C@@H](Cc1ccccc1)C(=O)N1CCC[C@H]1C(=O)N[C@@H](CCCN=C(N)N)C(=O)N1CCC[C@H]1C(=O)O [RRIRPRPPRLPRPRPRPLPFPRP]

- MIC [21]: ≥ 37.4 µM
Compound: CC[C@H](C)[C@H](NC(=O)[C@H](CCCCN)NC(=O)[C@@H]1CCCN1C(C)=O)C(=O)N[C@H](C(=O)N[C@@H](CO)C(=O)N[C@@H](CO)C(=O)N1CCC[C@H]1C(=O)N[C@@H](CC(C)C)C(=O)N[C@@H](Cc1ccccc1)C(=O)N[C@@H](CCCCN)C(=O)N[C@H](C(=O)N[C@@H](CC(C)C)C(=O)N[C@@H](CC(C)C)C(=O)N[C@@H](CO)C(=O)N[C@@H](C)C(=O)N[C@H](C(=O)NCC(=O)N[C@@H](CO)C(=O)N[C@@H](C)C(=O)N[C@@H](CC(C)C)C(=O)N[C@@H](CO)C(=O)N[C@@H](CO)C(=O)N[C@@H](CO)C(=O)NCC(=O)NCC(=O)N[C@@H](CCC(N)=O)C(=O)N[C@@H](CCC(=O)O)C(N)=O)C(C)C)[C@@H](C)O)[C@@H](C)CC [PKIISSPLFKTLLSAVGSALSSSGGQE]

- MIC [22]: ≥ 100 µM
- MIC [23]: ≥ 100 µM
- MIC [24]: 9.83 µM (≈ 14 µg/mL)
Compound: NC(=O)[C@H](CCCN=C(N)N)NC(=O)[C@H](CCCN=C(N)N)NC(=O)[C@H](CCCN=C(N)N)NC(=O)[C@H](CCCN=C(N)N)NC(=O)[C@H](CCCN=C(N)N)NC(=O)[C@H](CCCN=C(N)N)NC(=O)[C@H](CCCN=C(N)N)NC(=O)[C@H](CCCN=C(N)N)NC(=O)[C@@H](N)CCCN=C(N)N [RRRRRRRRR]

- MIC [27]: 6.25 µM (≈ 13.1 µg/mL)
- MIC [28]: 1.56 µM (≈ 3.26 µg/mL)
- MIC [29]: 0.19 µM (≈ 0.397 µg/mL)
- MIC [30]: 3.12 µM (≈ 6.52 µg/mL)
- MIC [31]: 3.12 µM (≈ 6.52 µg/mL)
- MIC [32]: 12.5 µM (≈ 26.1 µg/mL)
Compound: CC[C@H](C)[C@H](NC(=O)CNC(=O)[C@@H](NC(=O)[C@H](CCCCN)NC(=O)[C@H](CCCCN)NC(=O)[C@H](Cc1ccccc1)NC(=O)[C@H](CC(C)C)NC(=O)[C@H](CCCCN)NC(=O)[C@H](Cc1c[nH]c2ccccc12)NC(=O)[C@H](CCCCN)NC(=O)[C@H](CCCCN)NC(=O)[C@H](CCCCN)NC(=O)[C@@H](N)CCCCN)[C@@H](C)CC)C(=O)NCC(=O)N[C@@H](CCCCN)C(=O)N[C@@H](Cc1ccccc1)C(=O)N[C@@H](CC(C)C)C(N)=O [KKKKWKLFKKIGIGKFL]

The remaining lines, values behind:

Compound: CC[C@H](C)[C@H](N)C(=O)N[C@@H](CC(C)C)C(=O)N1CCC[C@H]1C(=O)N[C@@H](Cc1c[nH]c2ccccc12)C(=O)N[C@@H](CCCCN)C(=O)N[C@@H](CCCCN)C(=O)N1CCC[C@H]1C(=O)N[C@@H](CCCCN)C(=O)N[C@@H](CC(C)C)C(=O)N1CCC[C@H]1C(=O)N[C@@H](Cc1c[nH]c2ccccc12)C(=O)N[C@@H](CCCN=C(N)N)C(=O)N[C@@H](CCCN=C(N)N)C(N)=O [ILPWKKPKLPWRR]
- MIC [1]: 1.82 µM (≈ 3.13 µg/mL)
- MIC [2]: 0.908 µM (≈ 1.56 µg/mL)
- MIC [3]: 7.28 µM (≈ 12.5 µg/mL)

Compound: CC[C@H](C)[C@H](N)C(=O)N[C@@H](CC(C)C)C(=O)N1CCC[C@H]1C(=O)N[C@@H](CCCCN)C(=O)N[C@@H](CCCCN)C(=O)N[C@@H](CCCCN)C(=O)N1CCC[C@H]1C(=O)N[C@@H](Cc1c[nH]c2ccccc12)C(=O)N[C@@H](Cc1c[nH]c2ccccc12)C(=O)N1CCC[C@H]1C(=O)N[C@@H](Cc1c[nH]c2ccccc12)C(=O)N[C@@H](CCCN=C(N)N)C(=O)N[C@@H](CCCN=C(N)N)C(N)=O [ILPKKKPWWPWRR]
- MIC [1]: 3.49 µM (≈ 6.25 µg/mL)
- MIC [2]: 3.49 µM (≈ 6.25 µg/mL)
- MIC [3]: ≥ 55.8 µM

Compound: CC[C@H](C)[C@H](NC(=O)CN)C(=O)NCC(=O)NCC(=O)N[C@@H](C)C(=O)N[C@@H](CC(C)C)C(=O)N[C@@H](CC(C)C)C(=O)N[C@@H](CO)C(=O)N[C@@H](C)C(=O)NCC(=O)N[C@@H](CCCCN)C(=O)N[C@@H](CO)C(=O)N[C@@H](C)C(=O)N[C@@H](CC(C)C)C(=O)N[C@@H](CCCCN)C(=O)NCC(=O)N[C@@H](CC(C)C)C(=O)N[C@@H](C)C(=O)N[C@@H](CCCCN)C(=O)NCC(=O)N[C@@H](CC(C)C)C(=O)N[C@@H](C)C(=O)N[C@@H](CCC(=O)O)C(=O)N[C@@H](Cc1cnc[nH]1)C(=O)N[C@@H](CC(C)C)C(N)=O [GIGGALLSAGKSALKGLAKGLAEHL]
- MIC [25]: ≥ 42.9 µM
- MIC [26]: ≥ 42.9 µM
- MIC [10]: > 42.9 µM
- MIC [13]: 8.06 µM (≈ 18.8 µg/mL)

Compound: CC[C@H](C)[C@H](NC(=O)CN)C(=O)NCC(=O)NCC(=O)N[C@@H](C)C(=O)N[C@@H](CC(C)C)C(=O)N[C@@H](CC(C)C)C(=O)N[C@@H](CO)C(=O)N[C@@H](C)C(=O)NCC(=O)N[C@@H](CCCCN)C(=O)N[C@@H](C)C(=O)N[C@@H](C)C(=O)N[C@@H](CC(C)C)C(=O)N[C@@H](CCCCN)C(=O)NCC(=O)N[C@@H](CC(C)C)C(=O)N[C@@H](C)C(=O)N[C@@H](CCCCN)C(=O)N[C@H](C(=O)N[C@@H](CC(C)C)C(=O)N[C@H](C(N)=O)C(C)C)C(C)C [GIGGALLSAGKAALKGLAKVLV]
- MIC [25]: 4.68 µM (≈ 9.4 µg/mL)
- MIC [26]: 9.37 µM (≈ 18.8 µg/mL)
- MIC [10]: 18.7 µM (≈ 37.5 µg/mL)
- MIC [13]: 4.68 µM (≈ 9.4 µg/mL)
